Measurements as given in patent publication US11590116B2 (THERAVANCE BIOPHARMA R&D IP, LLC, priority 2019, dated 2023).
Where two headings read alike, the source gives them in different places.

What was measured:
[1] = biological target: T1, recombinant human ALK5 (TGF-βR1) protein (Homo sapiens, UniProt P36897); experiment: Biochemical ALK5 (TGF-βR1) assay to measure pKi (LANCE Ultra ULight kinase assay); details: apparent pKi from pIC50 by Cheng-Prusoff
T1 construct: purchased Life Technologies PR9075A
T1 sequence (P36897 34-503): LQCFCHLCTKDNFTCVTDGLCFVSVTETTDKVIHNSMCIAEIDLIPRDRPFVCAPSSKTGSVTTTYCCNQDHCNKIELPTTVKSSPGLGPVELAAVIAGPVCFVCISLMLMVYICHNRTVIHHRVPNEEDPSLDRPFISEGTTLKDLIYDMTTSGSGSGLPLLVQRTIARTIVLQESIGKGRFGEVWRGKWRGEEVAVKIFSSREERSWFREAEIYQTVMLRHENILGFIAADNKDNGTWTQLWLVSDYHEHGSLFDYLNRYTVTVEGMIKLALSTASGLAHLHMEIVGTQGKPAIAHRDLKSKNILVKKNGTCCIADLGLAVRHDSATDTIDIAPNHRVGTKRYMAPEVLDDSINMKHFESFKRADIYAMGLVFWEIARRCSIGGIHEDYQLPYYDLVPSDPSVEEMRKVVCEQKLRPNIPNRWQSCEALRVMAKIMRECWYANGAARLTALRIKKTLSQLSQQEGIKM
Procedure: The assays were performed in a 384-well plate (24 columns×16 wells/rows). An Echo® 550 Liquid Handler (Labcyte) was used to prepare various intermediate concentrations of compounds of the present disclosure in 100% DMSO. From the intermediate concentrations, a range of concentrations (from 10 μM to 25 pM corresponding to volumes up to 105 nL) were prepared and ejected into a final assay plate to be used to create individual dose response curves for each of the subject compounds. To a separate column within the assay plate, 105 nL of DMSO in each well was used to establish a maximum assay signal.
With a multidrop dispenser, 8 μL of enzyme mixture (1.25× final) was added to each well. […] The plate was then sealed with an adhesive seal and allowed to equilibrate for 60 minutes at room temperature.
Next, 2 μL of 125 μM ATP (5× final, 125 μM ATP prepared in assay buffer with 2 mM DTT) was added to the incubated mixtures, covered with a MicroClime® Environmental Lid (Product No. LLS-0310, Labcyte) and immediately transferred to 37° C. The reactions were allowed to proceed at 37° C. for 60 minutes before terminating with the addition of 10 μL of detection antibody (LANCE® (lanthanide chelate excite) Ultra Europium-anti-phospo-DNA Topoisomerase 2-alpha (Thr1342)) in detection mixture (12 mM EDTA, 4 nM detection antibody prepared in detection buffer (50 mM Tris-HCl, 150 mM NaCl, 0.5% BSA (Fraction V), pH 7.0)) at room temperature. The plate was then read on a Perkin Elmer EnVision Plate Reader using europium specific reader settings with excitation and emission wavelengths set to 320 or 340 nm and 665 nm, respectively.
For dose-response analyses, percent inhibition versus compound concentrations were plotted, and pIC50 values were determined from a 4-parameter robust fit model with GraphPad Prism V5 Software (GraphPad Software, Inc., La Jolla, Calif.). This model obtains pIC50 values by fitting the sigmoidal dose-response (variable slope) equation to the data. Results were expressed as pIC50 (negative logarithm of IC50) and subsequently converted to pKi (negative logarithm of dissociate constant, K) using the Cheng-Prusoff equation. The higher the value of pKi (lower value of Ki), the greater the inhibition of ALK5 activity.

[2] = system: TGF-β-stimulated SMAD3 phosphorylation in BEAS-2B cells; experiment: Cellular ALK5 potency assay, inhibition of TGF-β stimulated pSMAD3 formation in BEAS-2B cells; type: cell-based; details: Homo sapiens, read-out: BEAS2B pIC50 (converted)
Procedure: The potency of compounds of the present disclosure for inhibition of TGF-β-stimulated SMAD3 phosphorylation was measured in BEAS-2B cells, a human lung epithelial cell line. TGF-β signals through activin receptor-like kinase 5 (ALK5) immediately prior to SMAD3 phosphorylation.
BEAS-2B cells were grown using 50% DMEM (Life Technologies) and 50% F-12 (Life Technologies) media, supplemented with 10% Fetal Bovine Serum (ATCC), 25 mM HEPES (Life Technologies), and 1× Pen-Strep (Life Technologies). Cells were cultured in a humidified incubator set at 37° C., 5% CO2, and trypsonized using 0.25% Trypsin with 0.5% polyvinylpyrrolidone (PVP).
For the assay, BEAS-2B cells were seeded at 7,500 cells/well (25 μL/well) in a 384-well plate and cultured overnight. Before dosing, growth media was aspirated and the wells were rinsed with HBSS Buffer (HBSS with Calcium and Magnesium, Life Technologies) supplemented with 25 mM HEPES (Life Technologies) and 1% Bovine Serum Albumin (Roche). Compounds were serially diluted in DMSO, then further diluted with supplemented HBSS Buffer (50 μL/well) to create a compound plate 3× of the final assay concentration, at 0.3% DMSO. The diluted compounds were then added to the cells (8 μL/well) and incubated at 37° C., 5% CO2 for 1 hour. After the compound incubation, TGF-β (R&D Systems) reconstituted in supplemented HBSS Buffer was added to the cells ([…], final concentration 10 ng/mL) and incubated for a further 30 minutes, after which the cells were immediately lysed with AlphaLISA lysis buffer (PerkinElmer). AlphaLISA Acceptor and Detector beads (PerkinElmer) were added 2 hours apart, then incubated overnight to be read the next day. The potency of the compound was determined through analysis of dose-dependent quantified changes in pSMAD3 signal from baseline (non-compound treated TGF-β stimulated cells). Data are expressed as pIC50 (negative decadic logarithm IC50) values.

[3] = inhibition of TGF-β stimulated pSMAD3 formation, BEAS-2B cells

| SMILES | Ki ([1]; read-out: ALK5 pKi (converted)) [nM] | IC50 [2, 3] [nM] | Ki ([1]; ALK5 pKi) [nM] | IC50 ([2]; BEAS-2B) [nM] |
| --- | --- | --- | --- | --- |
| Cc1cccc(-c2nc3ccccn3c2-c2ccc3ncc(N4CCC(N(C)C)C4)cc3n2)n1 (racemic) [Compound 285, rac-(3S)-N,N-dimethyl-1-[6-[2-(6-methyl-2-pyridyl)imidazo[1,2-a]pyridin-3-yl]-1,5-naphthyridin-3-yl]pyrrolidin-3-amine] | 0.0398 to 0.316 | 25.1 to 158 | – | – |
| Cc1cccc(-c2n[nH]cc2-c2ccc3ncc(N4C[C@@H](C)N(C)C[C@H]4C)cc3n2)n1 (racemic) [Compound 296, 2-[3-(6-methyl-2-pyridyl)-1H-pyrazol-4-yl]-7-[rac-(2R,5R)-2,4,5-trimethylpiperazin-1-yl]-1,5-naphthyridine] | 0.0398 to 0.316 | 25.1 to 158 | – | – |
| COCC1CN(c2cnc3ccc(-c4c[nH]nc4-c4cccc(C)n4)nc3c2)CCN1 (racemic) [Compound 298, 2-[3-(6-methyl-2-pyridyl)-1H-pyrazol-4-yl]-7-[rac-(3R)-3-(methoxymethyl)piperazin-1-yl]-1,5-naphthyridine] | 0.0398 to 0.316 | 25.1 to 158 | – | – |
| Cc1cccc(-c2n[nH]cc2-c2ccc3ncc(N4CCC(O)C4)cc3n2)n1 (racemic) [Compound 312, rac-(3R)-1-[6-[3-(6-methyl-2-pyridyl)-1H-pyrazol-4-yl]-1,5-naphthyridin-3-yl]pyrrolidin-3-ol] | < 0.0316 | < 20 | – | – |
| Cc1cccc(-c2nnn(Cc3ccccc3)c2-c2ccc3ncc(N4CCC(N(C)C)C4)cc3n2)n1 (racemic) [Compound 331, rac-(3S)-1-[6-[3-benzyl-5-(6-methyl-2-pyridyl)triazol-4-yl]-1,5-naphthyridin-3-yl]-N,N-dimethyl-pyrrolidin-3-amine] | 0.0398 to 0.316 | 200 to 1260 | – | – |
| Cc1nc(-c2nc3ccccn3c2-c2ccc3ncc(N4CCC(N(C)C)C4)cc3n2)ccc1F (racemic) [Compound 347, rac-(3S)-1-[6-[2-(5-fluoro-6-methyl-2-pyridyl)imidazo[1,2-a]pyridin-3-yl]-1,5-naphthyridin-3-yl]-N,N-dimethyl-pyrrolidin-3-amine] | 0.0398 to 0.316 | 25.1 to 158 | – | – |
| Cc1cccc(-c2n[nH]cc2-c2ccc3ncc(C4C[C@H]5CC[C@@H](C4)N5)cc3n2)n1 (mixture of isomers) [Compound 350, 2-[3-(6-methyl-2-pyridyl)-1H-pyrazol-4-yl]-7-[rac-(1S,5R)-8-azabicyclo[3.2.1]octan-3-yl]-1,5-naphthyridine] | – | – | 3.98 to 31.6 | 200 to 1260 |
| COCC1CN(c2cnc3ccc(-c4c[nH]nc4-c4cccc(C)n4)nc3c2)CCN1C (racemic) [Compound 354, 2-[3-(6-methyl-2-pyridyl)-1H-pyrazol-4-yl]-7-[rac-(3R)-3-(methoxymethyl)-4-methyl-piperazin-1-yl]-1,5-naphthyridine] | < 0.0316 | 25.1 to 158 | – | – |
| Cc1nc(-c2n[nH]cc2-c2ccc3ncc(-c4cnn(C[C@H]5CCC[C@H](N)C5)c4)cc3n2)ccc1F (racemic) [Compound 395, rac-(1S,3S)-3-[[4-[6-[3-(5-fluoro-6-methyl-2-pyridyl)-1H-pyrazol-4-yl]-1,5-naphthyridin-3-yl]pyrazol-1-yl]methyl]cyclohexanamine] | < 0.0316 | 25.1 to 158 | – | – |
| Cc1cccc(-c2n[nH]cc2-c2ccc3ncc(N4C[C@H]5C[C@@H]4CN5C)cc3n2)n1 (racemic) [Compound 437, 2-[3-(6-methyl-2-pyridyl)-1H-pyrazol-4-yl]-7-[rac-(1R,4R)-5-methyl-2,5-diazabicyclo[2.2.1]heptan-2-yl]-1,5-naphthyridine] | 0.398 to 3.16 | 25.1 to 158 | – | – |
| Cc1cccc(-c2n[nH]cc2-c2ccc3ncc(N4C[C@@H](C)NC[C@H]4C)cc3n2)n1 (racemic) [Compound 462, 2-[3-(6-methyl-2-pyridyl)-1H-pyrazol-4-yl]-7-[rac-(2R,5R)-2,5-dimethylpiperazin-1-yl]-1,5-naphthyridine] | 0.398 to 3.16 | 25.1 to 158 | – | – |
| Cc1nc(-c2n[nH]cc2-c2ccc3ncc(-c4cnn(C[C@H]5CCC[C@@H](N)C5)c4)cc3n2)ccc1F (racemic) [Compound 463, rac-(1R,3S)-3-[[4-[6-[3-(5-fluoro-6-methyl-2-pyridyl)-1H-pyrazol-4-yl]-1,5-naphthyridin-3-yl]pyrazol-1-yl]methyl]cyclohexanamine] | < 0.0316 | 25.1 to 158 | – | – |
| Cc1cccc(-c2n[nH]cc2-c2ccc3ncc(N4CCNC(C(N)=O)C4)cc3n2)n1 (racemic) [Compound 497, rac-(2S)-4-[6-[3-(6-methyl-2-pyridyl)-1H-pyrazol-4-yl]-1,5-naphthyridin-3-yl]piperazine-2-carboxamide] | 0.0398 to 0.316 | 200 to 1260 | – | – |
| Cc1cccc(-c2n[nH]cc2-c2ccc3ncc(N(C)C4CCN(C(C)C)C4)cc3n2)n1 (racemic) [Compound 503, N-methyl-6-[3-(6-methyl-2-pyridyl)-1H-pyrazol-4-yl]-N-[rac-(3R)-1-isopropylpyrrolidin-3-yl]-1,5-naphthyridin-3-amine] | < 0.0316 | 25.1 to 158 | – | – |
| Cc1cccc(-c2n[nH]cc2-c2ccc3ncc(N4CCC(N(C)C)C4)cc3n2)n1 (racemic) [Compound 505, rac-(3S)-N,N-dimethyl-1-[6-[3-(6-methyl-2-pyridyl)-1H-pyrazol-4-yl]-1,5-naphthyridin-3-yl]pyrrolidin-3-amine] | < 0.0316 | 25.1 to 158 | – | – |
| Cc1cccc(-c2[nH]cnc2-c2ccc3ncc(NCCN(C)C4CCNC4)cc3c2)n1 (racemic) [Compound 537, N′-methyl-N-[6-[5-(6-methyl-2-pyridyl)-1H-imidazol-4-yl]-3-quinolyl]-N′-[rac-(3R)-pyrrolidin-3-yl]ethane-1,2-diamine] | 0.0398 to 0.316 | 200 to 1260 | – | – |
| Cc1nc(-c2nc3ccccn3c2-c2ccc3ncc(N4CCC(N(C)C)C4)cc3c2)ccc1F (racemic) [Compound 544, rac-(3S)-1-[6-[2-(5-fluoro-6-methyl-2-pyridyl)imidazo[1,2-a]pyridin-3-yl]-3-quinolyl]-N,N-dimethyl-pyrrolidin-3-amine] | 0.0398 to 0.316 | 25.1 to 158 | – | – |
| Cc1nc(-c2n[nH]cc2-c2ccc3ncc(-c4cnn(C[C@@H]5CC[C@H](N)C5)c4)cc3n2)ccc1F (racemic) [Compound 547, rac-(1S,3R)-3-[[4-[6-[3-(5-fluoro-6-methyl-2-pyridyl)-1H-pyrazol-4-yl]-1,5-naphthyridin-3-yl]pyrazol-1-yl]methyl]cyclopentanamine] | 0.0398 to 0.316 | 200 to 1260 | – | – |
